Measured values published in patent US5750530A, “Pharmaceutical diketopiperazine compounds” (Xenova Limited, priority 1994, dated 1998).
Where a name gives a salt, the structure may show the parent alone. Read-outs that look alike come from different tables or passages of the source. Blank lines part the entries; values can stand above or below the molecule they belong to.

Molecular target: PAI-1 (Homo sapiens, UniProt P05121)
Test: biochemical
Assay type: biochemical
Experimental: The present compounds have been tested in a PAI functional assay. In this assay, a compound is incubated with PAI-1 prior to addition to the tPA assay system. Inhibition of PAI-1 results in the production of plasmin from plasminogen. In turn, plasmin cleaves the chromogenic substrate S2251 (Kabi Vitrum) producing pNA (p-nitroaniline) which is detected spectrophotometrically at 405 nm (K. Nilsson et al, Fibrinolysis (1987) 1, 163-168).
The present compounds were tested in a PAI chromogenic substrate assay. In the assay (K. Nilsson, Fibrinolysis (1987) 1, 163-168) each compound was incubated with PAI-1 prior to addition to the tPA assay system. […] In turn, the plasmin cleaved the chromogenic substrate S2251 (Kabi-Vitrum) producing pNA (p-nitroaniline) which was detected spectrophotometrically at 405 nm.
The degrees of inhibition observed in the chromogenic substrate assay at various concentrations, or the IC50 values, for each compound are presented in Table 1.

[1] = PAI chromogenic substrate assay

Sequence of PAI-1 (P05121 24-402): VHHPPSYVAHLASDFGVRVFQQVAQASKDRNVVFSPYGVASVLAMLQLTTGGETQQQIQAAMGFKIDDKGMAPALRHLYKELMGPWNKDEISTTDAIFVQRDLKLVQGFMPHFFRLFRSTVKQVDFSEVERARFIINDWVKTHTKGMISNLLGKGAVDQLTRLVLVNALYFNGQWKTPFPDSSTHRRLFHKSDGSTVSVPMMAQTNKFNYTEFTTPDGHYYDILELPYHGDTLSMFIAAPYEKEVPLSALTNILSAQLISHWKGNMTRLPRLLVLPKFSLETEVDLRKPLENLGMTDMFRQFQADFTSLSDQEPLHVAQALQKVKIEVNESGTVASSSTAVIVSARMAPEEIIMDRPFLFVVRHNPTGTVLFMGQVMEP

Compound: CN(C)CCSc1ccc(/C=c2\[nH]c(=O)/c(=C/c3ccc4c(c3)Cc3ccccc3-4)[nH]c2=O)s1 [Compound 5301, (3Z,6Z)-3-(5-(2-Dimethylaminoethylthio)-2-thienyl)methylene-6-(2-fluorenylmethylene)-2,5-piperazinedione]
% Inhibition (20 μm): 65% | % Inhibition (100 μm): 107% | IC50 [1]: 20 µM

Compound: CN(C)CCSc1ccc(/C=c2\[nH]c(=O)/c(=C/c3c4ccccc4cc4ccccc34)[nH]c2=O)s1 [Compound 5498.HCl, (3Z,6Z)-6-(9-Anthrylmethylene)-3-(5-(2-dimethylaminoethylthio)-2-thienyl)methylene-2,5-piperazinedione]
% Inhibition (5 μm): 19% | % Inhibition (20 μm): 71% | IC50 [1]: 11.5 µM

Compound: CC(C)N(CCSc1ccc(/C=c2\[nH]c(=O)/c(=C/c3ccccc3)[nH]c2=O)s1)C(C)C [Compound 5399.HCl, (3Z,6Z)-6-Benzylidene-3-(5-(2-diisopropylaminoethylthio)-2-thienyl)methylene-2,5-piperazinedione]
% Inhibition (5 μm): 18% | % Inhibition (20 μm): 31%

Compound: CC(=O)Nc1ccc(/C=c2\[nH]c(=O)/c(=C/c3ccc(SCCN(C)C)s3)[nH]c2=O)cc1 [Compound 5300, (3Z,6Z)-6-(4-Acetamidobenzylidene)-3-(5-(2-dimethylaminoethylthio)-2-thienyl)methylene-2,5-piperazinedione]
% Inhibition (20 μm): 64% | % Inhibition (100 μm): 70% | IC50 [1]: 25 µM

Compound: CN(C)CCSc1ccc(/C=c2\[nH]c(=O)/c(=C/c3ccc4c(c3)CCO4)[nH]c2=O)s1 [Compound 5311.HCl, (3Z,6Z)-3-(2,3-dihydro-5-benzofuranyl)methylene-6-(5-(2-dimethylaminoethylthio)-2-thienyl)methylene-2,5-piperazinedione]
IC50 [1]: 20 µM

Compound: CN(C)CCSc1ccc(/C=c2\[nH]c(=O)/c(=C/c3cccc(OCc4ccccc4)c3)[nH]c2=O)cc1 [Compound 5486, (3Z,6Z)-3-(3-Benzyloxybenzylidene)-6-(4-(2-dimethylaminoethylthio)benzylidene)-2,5-piperazinedione]
% Inhibition (5 μm): 13% | % Inhibition (20 μm): 55% | IC50 [1]: 20 µM

Compound: CN(C)CCSc1ccc(/C=c2\[nH]c(=O)/c(=C/c3ccc(C(F)(F)F)cc3)[nH]c2=O)s1 [Compound 5293, (3Z,6Z)-3-(5-(2-Dimethylaminoethylthio)-2-thienyl)methylene-6-(4-trifluoromethylbenzylidene)-2,5-piperazinedione]
IC50 [1]: 20 µM

Compound: CN(C)CCSc1ccc(/C=c2\[nH]c(=O)/c(=C/c3ccnc4ccccc34)[nH]c2=O)s1 [Compound 5307.HCl, (3Z,6Z)-6-(5-(2-Dimethylaminoethylthio)-2-thienyl)methylene-3-(4-quinolylmethylene)-2,5-piperazinedione]
IC50 [1]: 18 µM

Compound: COC(=O)c1ccc(/C=c2\[nH]c(=O)/c(=C/c3ccc(SCCN(C)C)s3)[nH]c2=O)cc1 [Compound 5477, (3Z,6Z)-3-(5-(2-Dimethylaminoethylthio)-2-thienyl)methylene-6-(4-methoxycarbonylbenzylidene)-2,5-piperazinedione]
% Inhibition (5 μm): 10% | % Inhibition (20 μm): 59% | IC50 [1]: 20 µM

Compound: CN(C)CCSc1ccc(/C=c2\[nH]c(=O)/c(=C/c3cccc(C(F)(F)F)c3)[nH]c2=O)cc1 [Compound 5423, (3Z,6Z)-6-(4-(2-Dimethylaminoethylthio)benzylidene)-3-(3-trifluoromethylbenzylidene)-2,5-piperazinedione]
% Inhibition (20 μm): 11%

Compound: CN(C)CCSc1ccc(/C=c2\[nH]c(=O)/c(=C/c3ccc([N+](=O)[O-])cc3)[nH]c2=O)cc1 [Compound 5461.HCl, (3Z,6Z)-3-(4-(2-Dimethylaminoethylthio)benzylidene)-6-(4-nitrobenzylidene)-2,5-piperazinedione]
% Inhibition (5 μm): 10% | % Inhibition (20 μm): 56%

Compound: CN(C)CCSc1ccc(/C=c2\[nH]c(=O)/c(=C/CC(C)(C)C)[nH]c2=O)s1 [Compound 5502.HCl, (3Z,6Z)-3-(5-(2-Dimethylaminoethylthio)-2-thienyl)methylene-6-(3,3-dimethyl-1-butylidene)-2,5-piperazinedione]
% Inhibition (5 μm): 0% | % Inhibition (20 μm): 32%

Compound: CN(C)CCSc1ccc(/C=c2\[nH]c(=O)/c(=C/c3ccc(N(C)C)cc3)[nH]c2=O)s1 [Compound 5280, (3Z,6Z)-6-(4-Dimethylaminobenzylidene)-3-(5-(2-dimethylaminoethylthio)-2-thienyl)methylene-2,5-piperazinedione]
% Inhibition (20 μm): 82% | % Inhibition (100 μm): 99% | IC50 [1]: 20 µM

Compound: CN(C)CCSc1ccc(/C=c2\[nH]c(=O)/c(=C/c3ccncc3)[nH]c2=O)s1 [Compound 5472, (3Z,6Z)-6-(5-(2-Dimethylaminoethylthio)-2-thienyl)methylene-3-(4-pyridylmethylene)-2,5-piperazinedione]
% Inhibition (5 μm): 0% | % Inhibition (20 μm): 22%

Compound: CN(C)CCSc1ccc(/C=c2\[nH]c(=O)/c(=C/c3ccc4c(c3)CCO4)[nH]c2=O)s1 [Compound 5311, (3Z,6Z)-3-(2,3-dihydro-5-benzofuranyl)methylene-6-(5-(2-dimethylaminoethylthio)-2-thienyl)methylene-2,5-piperazinedione]
IC50: 15 µM

Compound: COc1ccc(/C=c2\[nH]c(=O)/c(=C/c3ccc(SCCN(C)C)s3)[nH]c2=O)cc1 [Compound 5464, (3Z,6Z)-3-(5-(2-Dimethylaminoethylthio)-2-thienyl)methylene-6-(4-methoxybenzylidene)-2,5-piperazinedione]
% Inhibition (5 μm): 19% | % Inhibition (20 μm): 58% | IC50 [1]: 10.5 µM

Compound: CN(C)CCSc1ccc(/C=c2\[nH]c(=O)/c(=C/c3ccccc3Br)[nH]c2=O)s1 [Compound 5313, (3Z,6Z)-6-(2-Bromobenzylidene)-3-(5-(2-dimethylaminoethylthio)-2-thienyl)methylene-2,5-piperazinedione]
% Inhibition (20 μm): 10%

Continued by falling IC50 [1], values first:

% Inhibition (5 μm): 5% | % Inhibition (20 μm): 71% | % Inhibition (100 μm): 69% | IC50 [1]: 10 µM
Compound: CN(C)CCSc1ccc(/C=c2\[nH]c(=O)/c(=C/c3ccccc3)[nH]c2=O)cc1 [Compound 5128.HCl, (3Z,6Z)-6-Benzylidene-3-(4-(2-dimethylaminoethylthio)benzylidene)-2,5-piperazinedione]

% Inhibition (5 μm): 15% | % Inhibition (20 μm): 60% | IC50 [1]: 8.6 µM
Compound: CN(C)CCSc1ccc(/C=c2\[nH]c(=O)/c(=C/c3cccc(OCc4ccccc4)c3)[nH]c2=O)s1 [Compound 5487, (3Z,6Z)-6-(3-Benzyloxybenzylidene)-3-(5-(2-dimethylaminoethylthio)-2-thienyl)methylene-2,5-piperazinedione]

% Inhibition (20 μm): 83% | % Inhibition (100 μm): 88% | IC50 [1]: 8.5 µM
Compound: CN(C)CCSc1ccc(/C=c2\[nH]c(=O)/c(=C/c3ccnc4ccccc34)[nH]c2=O)s1 [Compound 5307, (3Z,6Z)-6-(5-(2-Dimethylaminoethylthio)-2-thienyl)methylene-3-(4-quinolylmethylene)-2,5-piperazinedione]

% Inhibition (5 μm): 30% | % Inhibition (20 μm): 59% | IC50 [1]: 6.5 µM
Compound: CN(C)CCSc1ccc(/C=c2\[nH]c(=O)/c(=C/CC3CCCC(C)(C)C3)[nH]c2=O)s1 (stereo not shown) [Compound 5455, (3Z,6Z)-3-(5-(2-Dimethylaminoethylthio)-2-thienyl)methylene-6-(2-(3,3-dimethylcyclohexyl)ethylidene)-2,5-piperazinedione]

% Inhibition (5 μm): 25% | % Inhibition (20 μm): 52% | IC50 [1]: 5.7 µM
Compound: CSc1ccc(/C=c2\[nH]c(=O)/c(=C/c3ccc(SCCN(C)C)cc3)[nH]c2=O)cc1 [Compound 5426, (3Z,6Z)-3-(4-(2-Dimethylaminoethylthio)benzylidene)-6-(4-methylthiobenzyidene)-2,5-piperazinedione]

% Inhibition (5 μm): 51% | % Inhibition (20 μm): 68% | % Inhibition (100 μm): 50% | IC50 [1]: 4.5 µM
Compound: CN(C)CCSc1ccc(/C=c2\[nH]c(=O)/c(=C/c3ccoc3)[nH]c2=O)cc1 [Compound 5129.HCl, (3Z,6Z)-6-(4-(2-Dimethylaminoethylthio)benzylidene)-3-(3-furylmethylene)-2,5-piperazinedione]

% Inhibition (5 μm): 37% | % Inhibition (20 μm): 57% | IC50 [1]: 3.7 µM
Compound: CN(C)CCSc1ccc(/C=c2\[nH]c(=O)/c(=C/c3cccc(Br)c3)[nH]c2=O)cc1 [Compound 5425, (3Z,6Z)-3-(3-Bromobenzylidene)-6-(4-(2-dimethylaminoethylthio)benzylidene)-2,5-piperazinedione]

% Inhibition (5 μm): 32% | % Inhibition (20 μm): 73% | IC50 [1]: 3.6 µM
Compound: CN(C)CCSc1ccc(/C=c2\[nH]c(=O)/c(=C/c3ccc(Cl)c(Cl)c3)[nH]c2=O)cc1 [Compound 5465, (3Z,6Z)-3-(3,4-Dichlorobenzylidene)-6-(4-(2-dimethylaminoethylthio)benzylidene)-2,5-piperazinedione]
